The values that follow come from patent publication US20030153611A1, “1,3-Diarylprop-2-en-1-ones, compositions containing them and use thereof” (AVENTIS PHARMA S.A., priority 2001, published 2003).

Molecules are shown by their SMILES. Counter-ions that a name gives are not always drawn. Some results are limits rather than exact numbers.

The target of one test is T1, Tubulin (Sus scrofa, UniProt P02550+P02554).
T1 construct: Tubulin is purified from pig brains according to the published methods; from tissue; host or cells: pig brain
The experiment in a line: Assessment of the inhibition of tubulin polymerization (turbidimetry). It is filed as biochemical, pig. To be noted: tubulin 10 μM, turbidity at 350 nm, 37° C. The method, then: Tubulin is purified from pig brains according to the published methods (Shelanski et al., 1973, Proc. Natl, Acad. Sci. USA, 70, 765-768. Weingarten et al., 1975, Proc. Natl, Acad. Sci. USA, 72, 1858-1862). Briefly, the brains are ground and centrifuged in an extraction buffer. The tubulin, contained in the extract supernatant, is subjected to two successive cycles of polymerization at 37° C. and depolymerization at 4° C., before being separated from the MAPs (Microtubule Associated Proteins) by chromatography on a phosphocellulose P11 column (Whatman). The tubulin thus isolated is more than 95% pure. It is stored in a buffer known as RB/2 30% glycerol, the composition of which is MES-NaOH [2-(N-morpholino)ethanesulfonic acid] 50 mM, pH 6.8; MgCl2 0.25 mM; EGTA 0.5 mM; 30% glycerol (v/v), GTP (guanosine 5′-triphosphate) 0.2 mM.
The polymerization of the tubulin into microtubules is monitored by turbidimetry as follows; the tubulin is adjusted to a concentration of 10 μM (1 mg/ml) in the RB/2 30% glycerol buffer, to which is added 1 mM GTP and 6 mM MgCl2. The polymerization is initiated by increasing the temperature from 6° C. to 37° C. in a cuvette with a 1 cm optical pathlength, placed in a Uvikon 931 spectrophotometer (Kontron) equipped with a thermostatically-regulated cuvette holder. The increase in the turbidity of the solution is monitored at 350 nm.
The products are dissolved at 10 mM in DMSO and added at variable concentrations (0.5 to 10 μM) to the tubulin solution before polymerization. The IC50 value is defined as the concentration of product which inhibits 50% of the rate of polymerization. A product whose IC50 value is less than or equal to 3 μM is considered as very active.

The test system of the next test is HDMEC. The experiment in a line: Inhibition of cell proliferation, HDMEC. It is filed as cell-based. To be noted: Homo sapiens.
Another test relates to HeLa cells. The experiment in a line: Inhibition of proliferation of HeLa cells ([14C]-thymidine incorporation). To be noted: Homo sapiens, incubation for 48 hours, read-out: Inhibition of cell proliferation IC50 HeLa. It is filed as cell-based. The method, then: The proliferation of HeLa cells is assessed by measuring the incorporation of [^14C]-thymidine in the following way. The HeLa cells (epithelial tumor cells of human origin) are cultured in a DMEM medium (Gibco) which contains 10% fetal calf serum and antibiotics (1% penicillin, 1% streptomycin). To carry out the proliferation test, the cells are inoculated into 96-well cytostar microplates (Amersham), at a rate of 5 000 cells per well. [^14C]-thymidine (0.1 μCi/well) and the products to be assessed are then added. Variable concentrations of products up to 10 μM are used; the DMSO (solvent used to dissolve the products) should not exceed 0.5% in the medium. After incubation for 48 hours at 37° C., the radioactivity incorporated into the cells is measured by counting the plate in a TRI-LUX counter (Wallac). The IC50 value is defined as the concentration of product which reduces the radioactivity by 50% relative to an untreated control. A product whose IC50 value is less than 1 μM is considered as cytotoxic.

For the next test, the system named is HDMEC cells. Nature of the test: Detachment effect on HDMEC endothelial cells. It is filed as cell-based, Human. As to conditions: treatment for two hours.
Excerpt: A test to determine the detachment of endothelial cells was established in order to select the products on the basis of their “in vitro” activity. This test for determining the endothelial cell detachment is characterized in that the endothelial cells, inoculated in plates which are coated at the bottom with a binder, e.g., chosen from gelatin, fibronectin or vitronectin, after culturing, are supplemented with a medium containing the test compound, and the cells are then labeled with a fluorescent substance, the cells which become detached are removed by washing and the fluorescence of the remaining cells is counted in a fluorimeter.
This test consists in measuring the detachment of endothelial cells cultured on substrates based on a binder, e.g., chosen from fibronectin, vitronectin and gelatin. One day after inoculating the cells in plates containing 96 wells, for example, the culture medium is replaced with a medium containing the test compound in the absence of serum. The same preparation is prepared six times at three different concentrations ([…]) and the control without addition of antivascular product is prepared six times. After treatment for two hours with the test substance, the cells are labeled with calcein-AM (1.6 μg/ml) in a culture medium supplemented with 0.1% BSA. The cells which become detached are removed by washing with the culture medium containing 0.1% bovine serum albumin; 100 μl of medium are added to each well. The fluorescence of the remaining cells is counted in a fluorimeter. The data obtained are expressed relative to the control (untreated cells).
(§1) The assessment of the detachment of the endothelial cells in vitro is determined in the following way. HDMEC cells (Human Dermal Microvascular Endothelial Cells, Promocell, c-122102) are cultured in an ECGM-MV medium containing 5% fetal calf serum, growth factors (EGF 10 ng/ml, hydrocortisone 1 μg/ml, 0.4% growth supplement with heparin) and antibiotics (amphotericin 50 ng/ml, gentamicin 50 μg/ml). For the detachment test, the HDMECs are inoculated at a rate of 5 000 cells in clear-bottomed 96-well plates (Costar) precoated with fibronectin (10 μg/ml) or vitronectin (1 μg/ml) or gelatin. Twenty-four hours later, the culture medium is replaced with 0.1% BSA ECGM-MV medium containing the indicated products. The test concentrations are 0.1-0.3 and 1 μM for each product. After treatment for two hours, the cells are labeled for 1 hour with calcein (1.6 μg/ml, Molecular Probes) in 0.1% BSA ECGM-MV medium. The detached cells are then removed by washing with 0.1% BSA ECGM-MV medium; 100 μl of medium are added to each well. The fluorescence of the cells which remain attached to the substratum of the well is counted using a fluorimeter, Spectrafluor Plus (Tecan, excitation at 485 nm, and emission at 535 nm). The data are the average of six different samples and are expressed as a percentage of the control (untreated cells).
A cell detachment effect of greater than or equal to 15% is considered as significant.
as §1, with “(amphotericine” for “(amphotericin”, “The detached cells are then removed by washing with 0.1% BSA ECGM-MV medium; 100 μl of medium are added to each well. The fluorescence of the cells which remain attached to the substratum of the well is counted using a fluorimeter, Spectrafluor Plus (Tecan, excitation at 485 nm, and emission at 535 nm). The data are the average of six different samples and are expressed as a percentage of the control (untreated cells).” left out

T1 sequence (P02550 whole entry): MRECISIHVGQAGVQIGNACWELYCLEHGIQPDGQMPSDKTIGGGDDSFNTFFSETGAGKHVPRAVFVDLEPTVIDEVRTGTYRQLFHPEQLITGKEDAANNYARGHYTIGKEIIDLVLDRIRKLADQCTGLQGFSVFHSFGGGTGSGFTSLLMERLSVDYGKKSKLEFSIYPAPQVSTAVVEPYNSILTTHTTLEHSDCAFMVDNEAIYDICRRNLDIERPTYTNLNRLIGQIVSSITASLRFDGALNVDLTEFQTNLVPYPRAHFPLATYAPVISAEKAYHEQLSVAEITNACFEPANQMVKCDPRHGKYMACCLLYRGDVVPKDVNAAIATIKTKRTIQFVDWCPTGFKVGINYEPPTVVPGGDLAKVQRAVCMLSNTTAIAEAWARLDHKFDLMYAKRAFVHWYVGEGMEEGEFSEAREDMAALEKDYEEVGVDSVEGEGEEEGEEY
T1 sequence (P02554 whole entry): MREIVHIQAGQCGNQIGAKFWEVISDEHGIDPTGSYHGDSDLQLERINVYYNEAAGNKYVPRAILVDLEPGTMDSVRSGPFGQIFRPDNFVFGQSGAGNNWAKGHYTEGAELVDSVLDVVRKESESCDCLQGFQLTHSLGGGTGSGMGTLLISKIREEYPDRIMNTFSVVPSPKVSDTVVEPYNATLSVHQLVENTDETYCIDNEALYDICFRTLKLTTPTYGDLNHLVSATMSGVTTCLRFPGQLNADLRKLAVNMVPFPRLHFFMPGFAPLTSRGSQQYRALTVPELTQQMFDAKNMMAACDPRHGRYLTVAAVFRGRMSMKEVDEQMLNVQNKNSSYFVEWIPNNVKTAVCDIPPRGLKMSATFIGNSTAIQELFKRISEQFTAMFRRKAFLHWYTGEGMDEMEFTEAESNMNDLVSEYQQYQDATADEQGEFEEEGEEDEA

Consider `COc1cc(C(=NO)/C(C)=C/c2ccc3c(ccn3C)c2)cc(OC)c1OC` (mixture of isomers) [Example 7, E-2-Methyl-3-(1-methyl-1-H-indol-5-yl)-1-(3,4,5-trimethoxyphenyl)propenoneoxime], for which the figures for the IC50 against Tubulin and with HDMEC were 2000 nM and 300 to 500 nM, respectively.

`COc1ccc(/C=C(\C)C(=O)c2cc(OC)c(OC)c(OC)c2)cc1N` [Example 1, E-3-(3-Amino-4-methoxyphenyl)-2-methyl-1-(3,4,5-trimethoxyphenyl)propenone]: the IC50 on Tubulin stood at 300 nM. In the test with HDMEC, this molecule had an IC50 of 2.5 to 3.2 nM. Also, the IC50 in the test on HeLa cells lay within 3.6 to 4.3 nM. Further, in the test with HDMEC cells, the “Percentage of detachment of HDMEC cells induced with the compound at a concentration of 0.1 μM” value (from here on “Percentage of detachment … of 0.1 μM”) is listed as 21-36%, the “Percentage of detachment of HDMEC cells induced with the compound at a concentration of 0.3 μM” value (“Percentage of detachment … of 0.3 μM” for short) is given as 18-38% and the “Percentage of detachment of HDMEC cells induced with the compound at a concentration of 1 μM” value (“Percentage of detachment … of 1 μM” for short) is 37-42%.

Turning to `COc1cc(/C=C(\C)C(=O)c2cc(OC)c(OC)c(OC)c2)ccc1N` [Example 2, E-3-(4-Amino-3-methoxyphenyl)-2-methyl-1-(3,4,5-trimethoxyphenyl)propenone], the IC50 against Tubulin was found to be 2500 nM. The same molecule displayed an IC50 in the test with HDMEC of 1.9 to 4 nM. The IC50 in the test with HeLa cells is 39 to 104 nM. In the test with HDMEC cells, the “Percentage of detachment … of 0.1 μM” value is reported as 16-21%, the “Percentage of detachment … of 0.3 μM” value was 17-32% and the “Percentage of detachment … of 1 μM” value was 31-49%.

At Tubulin, `COc1ccc(OC)c(C(=O)/C(C)=C/c2ccc(OC)c(N)c2)c1.Cl` [Example 3, E-3-(3-Amino-4-methoxyphenyl)-2-methyl-1-(2,5-dimethoxyphenyl)propenone hydrochloride] registered an IC50 of 500 nM. For the same molecule, the IC50 with HDMEC is below 19 nM. Further, the IC50 in the test with HeLa cells is below 19 nM. Further, in the test on HDMEC cells, the “Percentage of detachment … of 0.1 μM” value worked out at 31%, the “Percentage of detachment … of 0.3 μM” value is 37% and the “Percentage of detachment … of 1 μM” value worked out at 34%.

For the molecule `COc1ccc(/C=C(\Br)C(=O)c2cc(OC)c(OC)c(OC)c2)cc1N` [Example 4, E-3-(3-Amino-4-methoxyphenyl)-2-bromo-1-(3,4,5-trimethoxyphenyl)propenone], on Tubulin, the IC50 is 600 nM.

At Tubulin, `COc1cc(C(=N\O)/C(C)=C/c2ccc3c(ccn3C)c2)cc(OC)c1OC` [Example 8, E-2-Methyl-3-(1-methyl-1-H-indol-5-yl)-1-(3,4,5-trimethoxyphenyl)propenone Z-oxime] came in with an IC50 of 800 nM.

As for `COc1cc(C(=N/O)/C(C)=C/c2ccc3c(ccn3C)c2)cc(OC)c1OC` [Example 9, E-2-Methyl-3-(1-methyl-1-H-indol-5-yl)-1-(3,4,5-trimethoxyphenyl)propenone E-oxime], the IC50 at Tubulin stood at 3500 nM.

As to `COc1ccc(/C=C(\C)C(=O)c2cc(OC)c(OC)c(OC)c2)cc1NC(=O)[C@@H](N)CCCNC(=N)N[N+](=O)[O-]` [Example 11, 2-Amino-5-[3-(1-nitroguanidino)]-pentanoic acid {2-methoxy-5-[2-methyl-3-oxo-3-(3,4,5-trimethoxy-phenyl)propenyl]phenyl}amide hydrochloride], the IC50 in the test with HDMEC worked out at 400 nM.

In turn, `COc1ccc(/C=C(\C)C(=O)c2cc(OC)c(OC)c(OC)c2)cc1NC(=O)[C@@H]1CCCN1C` [Example 12, 1-Methylpyrrolidine-2-carboxylic acid {2-methoxy-5-[2-methyl-3-oxo-3-(3,4,5-trimethoxyphenyl)propenyl]phenyl}amide hydrochloride] came in with an IC50 in the test with HDMEC of 320 nM.

For the molecule `COc1ccc(/C=C(\C)C(=O)c2cc(OC)c(OC)c(OC)c2)cc1NC(=O)[C@@H](N)C(C)C` [Example 15, (S)-2-Amino-3-methylbutanoic acid {2-methoxy-5-[2-methyl-3-oxo-3-(3,4,5-trimethoxy-phenyl)propenyl]phenyl}amide hydrochloride], the IC50 against Tubulin is 9000 nM; in the test with HDMEC, 30 to 60 nM.

Take `COc1cc(C(=O)/C(C)=C/c2ccc3c(ccn3C)c2)cc2c1OCO2` [Example 16, E-2-Methyl-3-(1-methyl-1-H-indol-5-yl)-1-(3-methoxy-4,5-methylenedioxyphenyl)propenone]: the IC50 on Tubulin is 500 nM.

As to `COc1cc(C(=O)/C(C)=C/c2ccc3[nH]ccc3c2)cc(OC)c1OC` [Example 19, E-2-Methyl-3-(1-H-indol-5-yl)-1-(3,4,5-trimethoxyphenyl)propenone], the IC50 against Tubulin was 800 nM.

`COc1cc(C(=O)/C(C)=C/c2ccc3c(ccn3CCN(C)C)c2)cc(OC)c1OC` [Example 20, E-2-Methyl-3-[1-(2-dimethylaminoethyl)-1-H-indol-5-yl]-1-(3,4,5-trimethoxyphenyl)propenone hydrochloride]: at Tubulin, the IC50 stood at 2000 nM.

For `COc1cc(C(=O)/C(C)=C/c2ccc3c(ccn3CO)c2)cc(OC)c1OC` [Example 21, E-2-Methyl-3-(1-hydroxymethyl-1-H-indol-5-yl)-1-(3,4,5-trimethoxyphenyl)propenone], the IC50 on Tubulin came out at 500 nM.
